Assay results: patent US20050019825A9, “Common ligand mimics: pseudothiohydantoins” (priority 2002, published 2005)
“And” between values parts separate entries of the source, which are not always exact repeats. Equal values may be shown once.

Target: dihydrodipicolinate reductase (DHPR) (Escherichia coli, UniProt P04036)
Assay: Screening of bi-ligands for DHPR (Example 25), kinetic assay at 340 nm
Assay type: biochemical
Conditions: bi-ligands, Example 25 (FIG. 7); substrate and NADPH near Km
Method: Screening of Biligands for Binding to Dihydrodipicolinate Reductase (DHPR)
This example describes the screening of bi-ligands having common ligand mimics for binding activity to dihydrodipicolinate reductase (DHPR).
Bi-ligands were produced by the methods of Examples 16 to 18. The bi-ligands were screened for binding to DHPR.
Stock solutions of each of the reagents were prepared in the following concentrations. Dilutions of the stock solutions were prepared prior to running the assay in the concentrations indicated below. Dilution of DHPR was prepared in 10 mM HEPES at a pH of 7.4. DHPS was not diluted and was stored in eppindorf tubes.
The L-ASA solution was prepared in the following manner. 180 μM stock solution of ASA was prepared. 100 μl of the ASA stock was mixed with 150 μl of concentrated NaHCO3 and 375 μl of […]. For use in the assay, 28.8 mM L-ASA equal 625 μl of the solution. The L-ASA stock solution was kept at a temperature of −20° C. After dilution, the pH of the 28.8 mM solution was checked and maintained between 1 and 2.
First, the DHPS reaction was monitored at 340 nm prior to and after addition of the inhibitor to detect background reaction with the inhibitor. The solution for background detection was a 945 μl solution containing 0.1 HEPES (pH 7.8), 1 mM pyruvate, 6 μM NADPH, 40 μM L-ASA, and 7 μl of 1 mg/ml DHPS at 25° C. in the volumes provided above. The sample solution was then mixed and incubated for 10 minutes. Next, 500 nM solutions of the inhibitors and enough DMSO to provide a final DMSO concentration of 5% were added. The solution was mixed and incubated for an additional 6 minutes.
In DHPR samples, 5 μl of the diluted DHPR enzyme were added. The sample was mixed for 20 seconds and then the reaction was run for 10 minutes. After a 50 second lag, the samples were read in a Cary spectrophotometer at 340 nm. Reading of the samples was continued until 300 seconds. Cuvette #1 contained the control reaction (no inhibitor), and cuvette #2 contained the positive control reaction in which Cibacron Blue at 2.58 μM was substituted for inhibitor to yield 70 to 80% inhibition. The substrate and NADPH or NAHD were kept near their Km values.

Chain of dihydrodipicolinate reductase (DHPR) (P04036 whole entry): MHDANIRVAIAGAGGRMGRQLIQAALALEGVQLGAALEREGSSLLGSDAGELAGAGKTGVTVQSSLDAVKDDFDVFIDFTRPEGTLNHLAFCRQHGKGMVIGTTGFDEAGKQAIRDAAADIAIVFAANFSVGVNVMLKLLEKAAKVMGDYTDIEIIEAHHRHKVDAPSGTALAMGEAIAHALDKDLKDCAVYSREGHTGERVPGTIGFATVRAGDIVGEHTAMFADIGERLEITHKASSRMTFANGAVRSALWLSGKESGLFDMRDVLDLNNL

Row | SMILES | IC50
1 | N=C1NC(=O)C(=Cc2ccc(O)c(C(=O)NCCSc3cc(C(=O)O)nc(C(=O)O)c3)c2)S1 [compound 5a, 4-{2-[2-hydroxy-5-(2-imino-4-oxo-thiazolidin-5-ylidenemethyl)-benzoylamino]-ethylsulfanyl}-pyridine-2,6-dicarboxylic acid] | ~8.2 µM and ~15.5 µM
2 | N=C1NC(=O)C(=Cc2cccc(C(=O)NCCSc3cc(C(=O)O)nc(C(=O)O)c3)c2)S1 [compound 5b, 4-{2-[3-(2-imino-4-oxo-thiazolidin-5-ylidenemethyl)-benzoylamino]-ethylsulfanyl}-pyridine-2,6-dicarboxylic acid] | ~1.02 µM
3 | N=C1NC(=O)C(=Cc2ccc(C(=O)NCCSc3cc(C(=O)O)nc(C(=O)O)c3)cc2)S1 [compound 5c, 4-{2-[4-(2-imino-4-oxo-thiazolidin-5-ylidenemethyl)-benzoylamino]-ethylsulfanyl}-pyridine-2,6-dicarboxylic acid] | ~33 µM
